# Assay results taken from US20180319865A1, “Identification of Novel Small Molecule Beta2 Integrin Agonists” (Rush University Medical Center, priority 2016, published 2018).
# Columns and labels:
# Type in all cases: cell-based
# [1] = biological target: T1, mutant integrin CD11bE320A/CD18 (Homo sapiens, UniProt P11215, E336A); test: HTS cell adhesion assay, K562 E320A cells on immobilized fibrinogen; settings: five point dose-response
# T1 construct: expressed in transfected cells; host or cells: K562 (ATCC)
# In short: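 K562 cells expressing the indicated CD11b/CD18 integrin were added to wells coated with 15 μg/mL fibrinogen and incubated with compound for 30 min at 37 °C in Ca2+/Mg2+ buffer. Non-adherent cells were removed by plate inversion. Adherent cells were fixed, stained with DAPI and counted by high-content imaging, scaled from 0% (1 mM Ca2+/Mg2+) to 100% (Mn2+ activation).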
# integrin CD11c/CD18 = biological target: T2, integrin CD11c/CD18 (Homo sapiens, UniProt P20702); test: HTS cell adhesion assay, K562 CD11c/CD18 cells on immobilized fibrinogen; settings: for EC50 CD11c/CD18: K562 CD11c/CD18 cells, adhesion to fibrinogen, dose-response
# T2 construct: expressed in transfected cells; host or cells: K562 (ATCC)
# Method: K562 cells stably expressing CD11c/CD18 (K562 CD11c/CD18) were generated similarly. Mutant CD11bE320A has been described previously. K562 cells stably transfected with mutant integrin CD11bE320A/CD18 (K562 E320A) were generated according to literature protocols. All cell lines were maintained in Iscove's Modified Dulbecco's Medium (IMDM) supplemented with 10% heat-inactivated fetal bovine serum, 50 IU/mL penicillin and streptomycin and 0.5 mg/mL G418.
# (§1) Cell adhesion assays with immobilized ligands were performed using the general protocol previously described and as illustrated in FIG. 1 [33]. Assays with all different K562 cell lines (K562, K562 CD11b/CD18, K562 CD11c/CD18 and K562 E320A) were performed in an identical fashion. Briefly, 384-well microplates (Corning 3700) were coated with 15 μg/mL fibrinogen (Fg) ligand in PBS^++ overnight at 4° C. At the same time, anti-CD18 (IB4) mAb was also coated. Subsequently, the coated wells were washed with 1% nonfat milk in TBS at room temperature for 1 hour. Next, the wells were washed 3 times with TBS, and the coated microplates were used in the HTS assays.
# (§2) K562 CD11b/CD18, K562 CD11bE320A/CD18 and K562 CD11c/CD18 cells were washed with TBS, and cells were transferred to the Fg-coated wells of microplates in the assay buffer (Ca^2+ and Mg^2+ for physiological condition, Mn^2+ as the Positive control). A 1 μL aliquot of the compounds were transferred to each washed well with multichannel pipet from the 384-well plates.
# (§3) The assay plates were incubated at 37° C. in the presence of small-molecule compounds for 30 min. To dislodge the non-adherent cell, the assay plates were gently inverted and kept in inverted position for 20 min at room temperature.
# (§4) The cells were fixed with 37% formaldehyde in a small volume and the plates were kept inverted for 1 h. Upon the fixation, the solutions in the well were discarded. Next, the cells were fluorescently labeled with DAPI (0.5 μM final in TBS with 0.1% Triton X-100) and the quantitated with “Opera High Content Screening System” (Perkin Elmer).
# Cell-adhesion under positive and negative control conditions was used to define the activity scale; signal corresponding to the number of non-small molecule treated cells adherent in activating buffer condition (in the presence of Mn^2+ ions as agonist, PC) was considered maximum (100% binding) and the signal corresponding to the number of non-small molecule treated cells adherent in basal buffer condition (in the presence of 1 mM each of Ca^2+ and Mg^2+, NC) was considered minimum (0% binding). […]
# The compounds were diluted in DMSO by the final concentration 10 μM, 5 μM, 2.5 μM, 1.25 μM and 0.625 μM and stocked as sealed in 384-well plates at −80° C.
# [2] = biological target: T3, wild-type integrin CD11b/CD18 (Homo sapiens, UniProt P11215); test: HTS cell adhesion assay, K562 CD11b/CD18 cells on immobilized fibrinogen
# T3 construct: expressed in transfected cells; host or cells: K562 (ATCC)
# Method: K562 cells stably expressing CD11c/CD18 (K562 CD11c/CD18) were generated similarly. […] K562 cells stably transfected with mutant integrin CD11bE320A/CD18 (K562 E320A) were generated according to literature protocols. All cell lines were maintained in Iscove's Modified Dulbecco's Medium (IMDM) supplemented with 10% heat-inactivated fetal bovine serum, 50 IU/mL penicillin and streptomycin and 0.5 mg/mL G418.
# as §1, §2, §3, §4
# Cell-adhesion under positive and negative control conditions was used to define the activity scale; signal corresponding to the number of non-small molecule treated cells adherent in activating buffer condition (in the presence of Mn^2+ ions as agonist, PC) was considered maximum (100% binding) and the signal corresponding to the number of non-small molecule treated cells adherent in basal buffer condition (in the presence of 1 mM each of Ca^2+ and Mg^2+, NC) was considered minimum (0% binding).
# [3] = Table 3, adhesion to fibrinogen
# [4] = Table 3, adhesion to fibrinogen, 5-point dose-response
# [5] = Table 4, adhesion to fibrinogen, dose-response
# [6] = Table 4, adhesion to fibrinogen
smiles,measurement,setting,value
O=C(CN1C(=O)c2ccccc2C1=O)Nc1ccc(-c2nc3ccccc3o2)cc1 [Compound 1255636],EC50,[1]; [3],0.678 µM
same,EC50 CD11c/CD18,integrin CD11c/CD18; Table 4,N/A Very Low
same,EC50 CD11b/CD18,[2]; [4],Very Low
same,EC50 CD11b/CD18,[2]; [5],N/A Very Low
C=CCn1c(SCC(=O)c2[nH]c(C)c(C(=O)OC)c2C)nc2scc(-c3ccc(OC)c(OC)c3)c2c1=O [Compound 1745635],EC50,[1]; [3],3.71 µM
same,EC50,[1]; [6],3.71 µM
same,EC50 CD11c/CD18,integrin CD11c/CD18; Table 3,Very low
same,EC50 CD11c/CD18,integrin CD11c/CD18; Table 4,N/A Very Low
same,EC50 CD11b/CD18,[2]; [5],N/A Very Low
O=C(O)CCN1C(=O)/C(=C\c2ccc(-c3nc4ccccc4s3)o2)SC1=S [Compound 2030970],EC50 E320A,[1]; [3],Very Low
same,EC50 CD11c/CD18,integrin CD11c/CD18; Table 4,N/A Very Low
same,EC50 CD11b/CD18,[2]; [4],Very Low
same,EC50 CD11b/CD18,[2]; [5],N/A Very Low
O=C(Nc1ccc2nc(-c3ccco3)c(-c3ccco3)nc2c1)N1CCCCCC1 [Compound 2214811],EC50,[1]; [3],4.68 µM
same,EC50,integrin CD11c/CD18,2.54 µM
Nc1c(C(=O)Nc2nccs2)sc2nc(-c3cccs3)cc(C(F)(F)F)c12 [Compound 2252798],EC50,[1]; [3],4.1 µM
same,EC50,integrin CD11c/CD18,4.06 µM
O=C(Nc1nccs1)c1cccc(N2C(=O)c3cccc4c([N+](=O)[O-])ccc(c34)C2=O)c1 [Compound 2254616],EC50,[1]; [3],4.43 µM
same,EC50,integrin CD11c/CD18,1.87 µM
O=c1c(-c2nc3ccccc3o2)c2oc3ccccc3n2c2ccccc12 [Compound 2321209],EC50,[1]; [3],5.3 µM
same,EC50,integrin CD11c/CD18,2.63 µM
N#C/C(=C\c1ccc(OCc2ccccc2)cc1)C(=O)Nc1nc2c(s1)CCN(Cc1ccccc1)C2 [Compound 2327777],EC50,[1]; [3],21.9 µM
same,EC50 CD11c/CD18,integrin CD11c/CD18; Table 3,Infinite
Cc1ccc2nc(-c3ccc(NC(=O)COC(=O)c4cncc(Br)c4)cc3)sc2c1 [Compound 2365417],EC50,[1]; [3],2.83 µM
same,EC50,integrin CD11c/CD18,4.04 µM
C=CCn1c(SCC(=O)c2ccc(CNC(C)=O)o2)nc2scc(C3CC3)c2c1=O [Compound 2569132],EC50,[1]; [3],6.29 µM
same,EC50,integrin CD11c/CD18,5.28 µM
Cc1ccc(C)c(NC(=S)NC(NC(=O)Cc2cccc3ccccc23)C(Cl)(Cl)Cl)c1 (stereo not shown) [Compound 2831455],EC50,[1]; [3],5.08 µM
same,EC50,integrin CD11c/CD18,6.87 µM
COC(=O)c1cc(OC)c(OC)cc1NC(=O)c1cc(-c2ccccc2)nc2ccccc12.Cl [Compound 2965657],EC50,[1]; [3],12.8 µM
same,EC50 CD11c/CD18,integrin CD11c/CD18; Table 3,Infinite
CCCCn1c(SCC(=O)c2ccc(OC)cc2OC)nc2cc(S(N)(=O)=O)ccc21 [Compound 2997788],EC50,[1]; [3],5.27 µM
same,EC50,integrin CD11c/CD18,4.72 µM
O=C(Nc1nc(-c2ccco2)c(-c2ccco2)s1)C1CC(=O)N(c2ccc3c(c2)OCCO3)C1 (stereo not shown) [Compound 2998894],EC50,[1]; [3],5.86 µM
same,EC50,integrin CD11c/CD18,3.05 µM
CCOC(=O)Cc1csc(NC(=O)c2sc3nc4c(C)cc(C)cc4cc3c2N)n1 [Compound 3207334],EC50,[1]; [3],5.17 µM
same,EC50,integrin CD11c/CD18,1.99 µM
CCOC(=O)N1CCC(NC(=O)c2ccc3c(c2)sc2nc(-c4ccc(OC)cc4)cn23)CC1 [Compound 3235854],EC50,[1]; [3],5.55 µM
same,EC50,integrin CD11c/CD18,2.71 µM
Cc1ccc(CCN2CC(C(=O)NCCCN3CCCCCC3)CC2=O)cc1 (stereo not shown) [Compound 3237466],EC50,[1]; [3],3.69 µM
same,EC50,integrin CD11c/CD18,1.35 µM
COc1ccc2cc3cc(C(=O)Nc4ccc5c(c4)OCCO5)oc3nc2c1 [Compound 3241193],EC50,[1]; [3],1.28 µM
same,EC50,integrin CD11c/CD18,0.691 µM
O=C1Nc2ccccc2SC(c2ccccc2)C1O (stereo not shown) [Compound 3242458],EC50,[1]; [3],2.83 µM
same,EC50,integrin CD11c/CD18,1.89 µM
Cc1nc(C)c(C(=O)Nc2nc3c(C)cccc3s2)o1 [Compound 3244965],EC50,[1]; [3],4.91 µM
same,EC50,integrin CD11c/CD18,4.03 µM
Cc1onc(-c2c(Cl)cccc2Cl)c1C(=O)NC(=S)Nc1sc2c(c1C(N)=O)CCC(C)C2 (stereo not shown) [Compound 3466680],EC50,[1]; [3],5.99 µM
same,EC50,integrin CD11c/CD18,6.26 µM
O=C(ONc1ccc(N=NC(=O)c2ccccc2O)cc1)c1ccccc1 [Compound 4483668],EC50,[1]; [3],5.42 µM
same,EC50,integrin CD11c/CD18,4.64 µM
CCc1nnc(NC(=O)c2sc3nc4c(cc3c2N)CCCCCC4)s1 [Compound 5143923],EC50,[1]; [3],5.31 µM
same,EC50,integrin CD11c/CD18,3.01 µM
COC(=O)c1ccc2c(c1)N(Cc1nc(-c3cccc(C)c3)oc1C)C(=O)C1CCCN21 (stereo not shown) [Compound 5309602],EC50,[1]; [3],6.42 µM
same,EC50,integrin CD11c/CD18,2.56 µM
Cn1c(C(=O)NCCN2CCc3ccccc3C2)cc2c(=O)n(C)c3ccccc3c21 [Compound 5309909],EC50,[1]; [3],259 µM
same,EC50 CD11c/CD18,integrin CD11c/CD18; Table 3,Infinite
C/C(=N/NC(=O)c1cc2ccccc2cc1O)C1C(=O)c2ccccc2C1=O [Compound 5431927],EC50,[1]; [3],2.35 µM
same,EC50,integrin CD11c/CD18,2.01 µM
Cc1ccc(/C=C/C(=O)Nc2ccc([N+](=O)[O-])c(NC(=O)/C=C/c3ccc(C)o3)c2)o1 [Compound 5736971],EC50,[1]; [3],6.55 µM
same,EC50,integrin CD11c/CD18,4.5 µM
C=CCOC(=O)c1cc(-c2ccc(/C=C3\C(=O)NC(=O)C(C#N)=C3C)o2)ccc1Cl [Compound 5769297],EC50,[1]; [3],2.53 µM
same,EC50,integrin CD11c/CD18,2.54 µM
COCCCNC(=O)c1c(N)n(/N=C/c2cccs2)c2nc3ccccc3nc12 [Compound 6880740],EC50,[1]; [3],4.99 µM
same,EC50,integrin CD11c/CD18,2.6 µM
O=C(N/N=C/c1ccc(-c2ccc(S(=O)(=O)Nc3ncccn3)cc2)o1)c1cc2ccccc2cc1O [Compound 6892904],EC50,[1]; [6],5.49 µM
same,EC50,integrin CD11c/CD18,2.42 µM
CC(C)CNC(=O)c1c(N)n(/N=C/c2ccccn2)c2nc3ccccc3nc12 [Compound 9568664],EC50,[1]; [3],6.19 µM
same,EC50,integrin CD11c/CD18,3.73 µM
CCCCCCCC(=O)Nc1ccc(C(=O)N/N=C/c2cccc([N+](=O)[O-])c2)cc1 [Compound 9774264],EC50,[1]; [3],4.16 µM
same,EC50,integrin CD11c/CD18,1.03 µM
CCOc1ccc(NC(=O)c2ccc(CNc3c(NC4CCCCC4)c(=O)c3=O)cc2)cc1 [Compound 11957216],EC50,[1]; [3],6.76 µM
same,EC50,integrin CD11c/CD18,4.31 µM
COc1cc(NC(=O)Cn2c(=O)n(-c3cccc(C)c3)c(=O)c3c(C)c(C)sc32)cc(OC)c1 [Compound 12004750],EC50,[1]; [3],6.23 µM
same,EC50,integrin CD11c/CD18,5.84 µM
Cc1ccc2nc(-c3ccc(NC(=O)CCS(=O)(=O)c4ccccc4)cc3)sc2c1 [Compound 12005977],EC50,[1]; [3],6.72 µM
same,EC50,integrin CD11c/CD18,5.05 µM
Cc1ccccc1Cn1c(=O)n(CC2CCC(C(=O)NCCc3ccccc3)CC2)c(=O)c2ccccc21 (stereo not shown) [Compound 12006068],EC50,[1]; [3],6.84 µM
same,EC50,integrin CD11c/CD18,2.46 µM
